The results in this text go back to patent publication EP0970067B1, “(METHYLSULFONYL)PHENYL-2-(5H)-FURANONES WITH OXYGEN LINK AS COX-2 INHIBITORS” (Merck Frosst Canada & Co., priority 1997, dated 1998).

In test [1] the target is T1, human COX-1 (Homo sapiens, UniProt P23219).
T1 construct: expressed in transfected cells; host or cells: CHO [hCOX-1], stably transfected with pCDNAIII
As to the kind of experiment: Whole cell COX-1 assay using CHO transfected cell line (PGE2 radioimmunoassay). The class given is cell-based. As to conditions: CHO [hCOX-1] cells; PGE2 synthesis in response to arachidonic acid. The procedure:
Compounds are tested as inhibitors of cyclooxygenase activity in whole cell cyclooxygenase assays. These assays measure prostaglandin E2 synthesis in response to arachidonic acid, using a radioimmunoassay. Cells used for these assays are chinese hamster ovary (CHO) cell lines which have been stably transfected with an eukaryotic expression vector […] containing either the human Cox-1 or Cox-2 CDNA's. U937 cell microsomes are also used to measure Cox-1 activity.
Chinese hamster ovary (CHO) cell lines which have been stably transfected with an eukaryotic expression vector pCDNAIII containing either the human COX-1 or COX-2 cDNA's are used for the assay. These cell lines are referred to as CHO [hCOX-1] and CHO [hCOX-2], respectively. […]
Compounds of the present invention are inhibitors of cyclooxygenase-2 and are thereby useful in the treatment of cyclooxygenase-2 mediated diseases as enumerated above. […] In the assay, inhibition is determined by measuring the amount of prostaglandin E2 (PGE2) synthesized in the presence of arachidonic acid, cyclooxygenase-1 or cyclooxygenase-2 and a putative inhibitor.

Test [2] has as its system Rat Paw Edema. As to the kind of experiment: Rat paw edema assay (carrageenan-induced). As to conditions: po, 1 hr before subplantar carrageenan, paw volume measured three hr later. The class given is in vivo, Male Sprague-Dawley rats. The procedure: Male Sprague-Dawley rats (150-200 g) are fasted overnight and are given, po, either vehicle (1% methocel or 5% Tween 80) or a test compound. One hr later, a line is drawn using a permanent marker at the level above the ankle in one hind paw to define the area of the paw to be monitored. The paw volume (V0) is measured using a plethysmometer (Ugo-Basile, Italy) based on the principle of water displacement. The animals are then injected subplantarly with […] of 1% carrageenan solution in saline (FMC Corp, Maine) into the paw using an insulin syringe with a 25-gauge needle (i.e. […] carrageenan per paw). Three hr later, the paw volume (V3) is measured and the increases in paw volume (V3 - VO) are calculated. The animals are sacrificed by CO2 asphyxiation and the absence or presence of stomach lesions scored. Data is compared with the vehicle-control values and percent inhibition calculated. All treatment groups are coded to eliminate observer bias.

T1 sequence (P23219 24-599): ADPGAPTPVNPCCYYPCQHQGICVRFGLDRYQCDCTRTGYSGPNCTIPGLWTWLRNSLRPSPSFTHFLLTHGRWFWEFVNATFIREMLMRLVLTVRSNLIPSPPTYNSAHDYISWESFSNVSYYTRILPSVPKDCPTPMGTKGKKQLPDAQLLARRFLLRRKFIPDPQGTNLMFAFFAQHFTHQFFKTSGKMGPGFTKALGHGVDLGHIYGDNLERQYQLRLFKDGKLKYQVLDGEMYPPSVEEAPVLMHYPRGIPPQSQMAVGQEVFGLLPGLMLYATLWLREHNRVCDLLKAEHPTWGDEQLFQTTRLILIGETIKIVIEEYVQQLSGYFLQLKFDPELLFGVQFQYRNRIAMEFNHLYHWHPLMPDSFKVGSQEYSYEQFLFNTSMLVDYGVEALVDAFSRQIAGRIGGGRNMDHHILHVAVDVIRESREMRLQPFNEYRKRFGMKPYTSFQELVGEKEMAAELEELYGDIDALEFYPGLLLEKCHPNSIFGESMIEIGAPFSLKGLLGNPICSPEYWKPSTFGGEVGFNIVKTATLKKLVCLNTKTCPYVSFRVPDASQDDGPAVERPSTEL

Broadly, the IC50 is the concentration that inhibits the measured activity by half. Low values mean inhibition by little substance, high ones a need for much substance. By ED50 is commonly meant the dose that gives a 50% effect, or the effect in half of the subjects. In test [1], `C[C@H](CF)COC1=C(c2ccc(S(C)(=O)=O)cc2)C(C)(C)OC1=O` [Example 11, 3-(((2S)-3-fluoro-2-methylpropyl)oxy)-5,5-dimethyl-4-(4-methylsulfonylphenyl)-5H-furan-2-one] came in with an IC50 of over 50 µM. Also, in test [2], the ED50 is 2.3 mg/kg.

With `C[C@@H](CF)COC1=C(c2ccc(S(C)(=O)=O)cc2)C(C)(C)OC1=O` [Example 10, 3-(((2R)-3-Fluoro-2-methylpropyl)oxy)-5,5-dimethyl-4-(4-methylsulfonylphenyl)-5H-furan-2-one], the IC50 in test [1] was determined as 100 µM. In test [2], this compound yielded an ED50 of 3.2 mg/kg.
